Reference: patent US10035800B2 (AbbVie Inc., priority 2013, dated 2018)

Legend:
BRD4 (BDI_K57-E168) = biological target: T1, BRD4 (BDI_K57-E168) (Homo sapiens, UniProt O60885); test: TR-FRET bromodomain binding assay, first bromodomain of BRD4; details: 100 nM probe
T1 construct: BD1: amino acids K57-E168; made in house
Summary of the method: (§1)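 Compound dilutions are mixed with His-tagged BRD4 bromodomain (8 nM), europium anti-His antibody (1 nM) and Alexa647 probe (BDI 100 nM; BDII 30 nM) in pH 6.0 buffer containing 2% DMSO. After equilibrating one hour at room temperature, TR-FRET is measured; percent inhibition is fitted to obtain IC50, from which Ki is calculated.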

[1] = tested on: breast cancer cell line MX-1; test: MX-1 cell line proliferation assay; assay type: cell-based; details: MX-1 cells, 3-day proliferation assay, Cell Titer Glo; read-out: Cellular proliferation: EC50
Description: MX-1 Cell Line Proliferation Assay
The impact of compounds of the Examples on cancer cell proliferation was determined using the breast cancer cell line MX-1 (ATCC) in a 3-day proliferation assay and the data are reported in Table 1. MX-1 cells were maintained in RPMI 1640 medium (Sigma) supplemented with 10% FBS at 37 C.° and an atmosphere of 5% CO2. For compound testing, MX-1 cells were plated in 96-well black bottom plates at a density of 5000 cells/well in 90 μL of culture media and incubated at 37° overnight to allow cell adhesion and spreading. Compound dilution series were prepared in DMSO via a 3-fold serial dilution from 3 mM to 0.1 μM. The DMSO dilution series were then diluted 1:100 in phosphate buffered saline, and 10 μL of the resulted solution were added to the appropriate wells of the MX-1 cell plate. The final compound concentrations in the wells were 3, 1, 0.3, 0.1, 0.03, 0.01, 0.003, 0.001, 0.0003, and 0.0001 μM or 1, 0.3, 0.1, 0.03, 0.01, 0.003, 0.001, 0.0003, 0.0001, and 0.00003 μM.
Luminescence readings from the Cell Titer Glo assay were normalized to the DMSO treated cells and analyzed using the GraphPad Prism software with sigmoidal curve fitting to obtain EC50s. The minimum significant ratio (MSR) was determined to evaluate assay reproducibility (Eastwood et al., (2006) J Biomol Screen, 11: 253-261). The overall MSR was determined to be 2.1 and a moving MSR (last six run MSR overtime) has been <2.

BRD4 (BDII_E352-M457) = biological target: T2, BRD4 (BDII_E352-M457) (Homo sapiens, UniProt O60885); test: TR-FRET bromodomain binding assay, second bromodomain of BRD4; details: 30 nM probe
T2 construct: protocol; made in house
Summary of the method: as §1

[2] = TR-FRET assay protocol G (compound 0.92 μM-15 pM)
[3] = TR-FRET assay protocol E (compound 9.19 μM-150 pM)

| Molecule | Ki (BRD4 (BDI_K57-E168); [2]) [nM] | EC50 [1] [nM] | Ki (BRD4 (BDII_E352-M457); [2]) [nM] | Ki (BRD4 (BDI_K57-E168); [3]) [nM] | Ki (BRD4 (BDII_E352-M457); [3]) [nM] |
| --- | --- | --- | --- | --- | --- |
| CCOC(=O)c1[nH]c2c(=O)n(C)cc3c2c1CN(c1ccc(F)cc1F)c1ccc(CS(C)(=O)=O)cc1-3 [Example 208, ethyl 4-(2,4-difluorophenyl)-10-methyl-7-((methylsulfonyl)methyl)-11-oxo-3,4,10,11-tetrahydro-1H-1,4,10-triazadibenzo[cd,f]azulene-2-carboxylate] | 3.41 | 10.7 | 1.15 |  |  |
| CC(C)CNC(=O)C1c2c[nH]c3c(=O)n(C)cc(c23)-c2cc(CS(C)(=O)=O)ccc2N1c1ccc(F)cc1F (stereo not drawn) [Example 161, 4-(2,4-difluorophenyl)-N-isobutyl-10-methyl-7-((methylsulfonyl)methyl)-11-oxo-3,4,10,11-tetrahydro-1H-1,4,10-triazadibenzo[cd,f]azulene-3-carboxamide] | 32.1 | 41.6 | 21.4 |  |  |
| 4-(6-methoxypyridin-2-yl)-10-methyl-7-((methylsulfonyl)methyl)-3,4-dihydro-1H-1,4,10-triazadibenzo[cd,f]azulen-11(10H)-one [Example 256] | 0.59 | 0.35 | 0.54 |  |  |
| Cn1cc2c3c(c[nH]c3c1=O)CN(CC1CCN(C(=O)OC(C)(C)C)CC1)c1ccc(CS(C)(=O)=O)cc1-2 [Example 28] |  | 13.7 |  | 1.1 | 1.17 |
| 10-methyl-7-((methylsulfonyl)methyl)-4-(pyrimidin-4-yl)-3,4-dihydro-1H-1,4,10-triazadibenzo[cd,f]azulen-11(10H)-one [Example 259] | 3.4 | 19 | 3.05 |  |  |
| Cc1ccccc1NC(=O)N1Cc2c[nH]c3c(=O)n(C)cc(c23)-c2cc(CS(C)(=O)=O)ccc21 [Example 52, 10-methyl-7-((methylsulfonyl)methyl)-11-oxo-N-(o-tolyl)-10,11-dihydro-1H-1,4,10-triazadibenzo[cd,f]azulene-4(3H)-carboxamide] | 17.4 | 247 | 4.99 |  |  |
| 1-((4-(2,4-difluorophenyl)-10-methyl-7-((methylsulfonyl)methyl)-11-oxo-3,4,10,11-tetrahydro-1H-1,4,10-triazadibenzo[cd,f]azulen-3-yl)methyl)-3-phenylurea [Example 138] | 22.5 | 256 | 1.94 |  |  |
| 4-([1,1′-biphenyl]-4-carbonyl)-10-methyl-7-((methylsulfonyl)methyl)-3,4-dihydro-1H-1,4,10-triazadibenzo[cd,f]azulen-11(10H)-one [Example 102] | 9.41 | 151 | 26.9 |  |  |
| COCCCC1c2c[nH]c3c(=O)n(C)cc(c23)-c2cc(CS(C)(=O)=O)ccc2N1c1ccc(F)cc1F (stereo not drawn) [Example 147, 4-(2,4-difluorophenyl)-3-(3-methoxypropyl)-10-methyl-7-((methylsulfonyl)methyl)-3,4-dihydro-1H-1,4,10-triazadibenzo[cd,f]azulen-11(10H)-one] | 7.02 | 20.3 | 0.97 |  |  |
| Cn1cc2c3c(c[nH]c3c1=O)CN(Cc1ccccc1)c1ccc(CS(C)(=O)=O)cc1-2 [Example 247, 4-benzyl-10-methyl-7-((methylsulfonyl)methyl)-3,4-dihydro-1H-1,4,10-triazadibenzo[cd,f]azulen-11(10H)-one] | 2.22 | 4.94 | 2.42 |  |  |
| CCOC(=O)N1Cc2c[nH]c3c(=O)n(C)cc(c23)-c2cc(CS(C)(=O)=O)ccc21 [Example 87, ethyl 10-methyl-7-((methylsulfonyl)methyl)-11-oxo-10,11-dihydro-1H-1,4,10-triazadibenzo[cd,f]azulene-4(3H)-carboxylate] | 2.54 | 4.69 | 2.1 |  |  |

Now from value to molecule:

| Ki (BRD4 (BDI_K57-E168); [2]) [nM] | EC50 [1] [nM] | Ki (BRD4 (BDII_E352-M457); [2]) [nM] | Ki (BRD4 (BDI_K57-E168); [3]) [nM] | Ki (BRD4 (BDII_E352-M457); [3]) [nM] | Molecule |
| --- | --- | --- | --- | --- | --- |
| 57.3 | 603 | 65.8 |  |  | Cn1cc2c3c(c[nH]c3c1=O)C(c1ccccc1)N(c1ccc(F)cc1F)c1ccc(CS(C)(=O)=O)cc1-2 [Example 216, (S)-4-(2,4-difluorophenyl)-10-methyl-7-((methylsulfonyl)methyl)-3-phenyl-3,4-dihydro-1H-1,4,10-triazadibenzo[cd,f]azulen-11(10H)-one] |
| 1.85 | 153 | 3.47 |  |  | CC(=O)NC1CCC(N2Cc3c[nH]c4c(=O)n(C)cc(c34)-c3cc(CS(C)(=O)=O)ccc32)CC1 (mixture of isomers) [Example 243, N-(4-(10-methyl-7-((methylsulfonyl)methyl)-11-oxo-10,11-dihydro-1H-1,4,10-triazadibenzo[cd,f]azulen-4(3H)-yl)cyclohexyl)acetamide] |
| 24.5 | 84.9 | 2.22 |  |  | Cn1cc2c3c(c[nH]c3c1=O)C(C1CCOCC1)N(c1ccc(F)cc1F)c1ccc(CS(C)(=O)=O)cc1-2 (stereo not drawn) [Example 228, 4-(2,4-difluorophenyl)-10-methyl-7-((methylsulfonyl)methyl)-3-(tetrahydro-2H-pyran-4-yl)-3,4-dihydro-1H-1,4,10-triazadibenzo[cd,f]azulen-11(10H)-one] |
|  | 48.7 |  | 46 | 8.91 | CCC1c2c[nH]c3c(=O)n(C)cc(c23)-c2cc(S(=O)(=O)CC)ccc2N1CC1CC1 (stereo not drawn) [Example 3, 4-(cyclopropylmethyl)-3-ethyl-7-(ethylsulfonyl)-10-methyl-3,4-dihydro-1H-1,4,10-triazadibenzo[cd,f]azulen-11(10H)-one] |
| 4.53 | 34.3 | 7.33 |  |  | Cn1ccc(CN2Cc3c[nH]c4c(=O)n(C)cc(c34)-c3cc(CS(C)(=O)=O)ccc32)n1 [Example 255, 10-methyl-4-((1-methyl-1H-pyrazol-3-yl)methyl)-7-((methylsulfonyl)methyl)-3,4-dihydro-1H-1,4,10-triazadibenzo[cd,f]azulen-11(10H)-one] |
| 8.96 | 146 | 15.9 |  |  | Cn1cc2c3c(c[nH]c3c1=O)CN(CCc1ccccc1)c1c(F)cc(F)cc1-2 [Example 55, 5,7-difluoro-10-methyl-4-phenethyl-3,4-dihydro-1H-1,4,10-triazadibenzo[cd,f]azulen-11(10H)-one] |
| 12.6 | > 1000 | 3.78 |  |  | CN(C)C(=O)c1cc(CS(C)(=O)=O)cc2c1N(c1ccc(F)cc1F)Cc1c[nH]c3c(=O)n(C)cc-2c13 [Example 242, 4-(2,4-difluorophenyl)-N,N,10-trimethyl-7-((methylsulfonyl)methyl)-11-oxo-3,4,10,11-tetrahydro-1H-1,4,10-triazadibenzo[cd,f]azulene-5-carboxamide] |
| 31.9 | 294 | 2.12 |  |  | CCNC(=O)c1[nH]c2c(=O)n(C)cc3c2c1C(C(=O)OCC)N(c1ccc(F)cc1F)c1ccc(CS(C)(=O)=O)cc1-3 (stereo not drawn) [Example 239, ethyl 4-(2,4-difluorophenyl)-2-(ethylcarbamoyl)-10-methyl-7-((methylsulfonyl)methyl)-11-oxo-3,4,10,11-tetrahydro-1H-1,4,10-triazadibenzo[cd,f]azulene-3-carboxylate] |
| 4.43 | 1.05 | 3 |  |  | Cn1cc2c3c(c[nH]c3c1=O)CN(c1ccc(F)cc1)c1ncc(N)cc1-2 [Example 21, 7-amino-4-(4-fluorophenyl)-10-methyl-3,4-dihydro-1H-1,4,5,10-tetraazadibenzo[cd,f]azulen-11(10H)-one] |
|  | 343 |  | 145 | 24.1 | Cn1cc2c3c(c[nH]c3c1=O)C(CCc1ccccc1)Nc1ccc(CS(C)(=O)=O)cc1-2 (stereo not drawn) [Example 18, 10-methyl-7-((methylsulfonyl)methyl)-3-phenethyl-3,4-dihydro-1H-1,4,10-triazadibenzo[cd,f]azulen-11(10H)-one] |
| 3.27 | 1.81 | 1.15 |  |  | Cc1ccc(OC(=O)N2Cc3c[nH]c4c(=O)n(C)cc(c34)-c3cc(CS(C)(=O)=O)ccc32)cc1 [Example 91, p-tolyl 10-methyl-7-((methylsulfonyl)methyl)-11-oxo-10,11-dihydro-1H-1,4,10-triazadibenzo[cd,f]azulene-4(3H)-carboxylate] |
| 1.72 | 13.3 | 0.8 |  |  | Cn1cc2c3c(c(C#N)[nH]c3c1=O)CN(c1ccc(F)cc1F)c1ccc(CS(C)(=O)=O)cc1-2 [Example 210, 4-(2,4-difluorophenyl)-10-methyl-7-((methylsulfonyl)methyl)-11-oxo-3,4,10,11-tetrahydro-1H-1,4,10-triazadibenzo[cd,f]azulene-2-carbonitrile] |
